The target of this experiment is recombinant eIF4E (Homo sapiens (Human), UniProt P06730). Nature of the experiment: Fluorescence polarization competition assay for eIF4E binding potency. The gist of the method: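 Competitive displacement format: compounds compete with a fluorescent m7GDP tracer (20 nM) for 75 nM recombinant eIF4E. Incubation is 30 min at room temperature, protected from light, with 1% DMSO. Polarization read gives IC50 over eight 3-fold concentrations.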

Where [1] appears, read: inhibition of eIF4E/EDA-m7GDP-ATTO-550 binding, calculated IC50 values, Table 4B, read-out: IC50.
[2] abbreviates: fluorescence polarization competition, 75 nM recombinant eIF4E, 20 nM EDA-m7GDP-ATTO-550, IC50 class, read-out: elF4E FP.
Where [3] appears, read: inhibition of eIF4E/EDA-m7GDP-ATTO-550 binding by 50%, Table 4B calculated values, read-out: IC50.

Read-outs that look alike come from different tables or passages of the source. Some results are limits rather than exact numbers.

recombinant eIF4E, sequence (P06730 whole entry): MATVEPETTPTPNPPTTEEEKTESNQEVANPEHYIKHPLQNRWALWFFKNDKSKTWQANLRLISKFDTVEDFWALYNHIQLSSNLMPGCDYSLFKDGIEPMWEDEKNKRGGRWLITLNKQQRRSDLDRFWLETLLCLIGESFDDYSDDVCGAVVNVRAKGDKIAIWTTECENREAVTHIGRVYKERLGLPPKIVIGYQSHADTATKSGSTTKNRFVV

As to `Cc1nc2cc(C(F)F)cc(C#N)c2c(=O)n1CCOc1ccc(Cl)cc1-c1ccnc2c(C(=O)O)csc12` [compound 1939], the IC50 under setting [1] was 0.0245 µM.

Regarding `Cc1nc2cnc(N3CC[C@H]4CN(CC(F)F)CC[C@H]43)c(C#N)c2c(=O)n1CC#Cc1ccc(Cl)cc1-c1ccnc2c(C(=O)O)csc12` [compound 1556], under setting [1], the IC50 was 0.0499 µM. On the same count and under the same terms, with `Cc1nc2cnc(N(C)C3CCN(C4CC(F)(F)C4)CC3)c(C#N)c2c(=O)n1CC#Cc1ccc(Cl)cc1-c1ccnc2c(C(=O)NS(=O)(=O)CF)csc12` [compound 1817] the figure was 0.0258 µM. Consider `Cc1cc(-c2cc(Cl)ccc2OCCn2c(C)nc3cc(C(F)F)c(-c4cccnc4C)c(C#N)c3c2=O)c2scc(C(=O)O)c2n1` [compound 440], for which the IC50 is, setting by setting: under setting [2], less than 0.05 µM; under setting [3], 0.00499 µM. Consider `Cc1cc(-c2cc(Cl)ccc2OCCn2c(C)nc3cc(C(F)(F)F)c(-c4ccc(F)cn4)c(C#N)c3c2=O)c2scc(C(=O)O)c2n1` [compound 1381], for which, under setting [1], the IC50 is 0.00796 µM.

Regarding `COc1ccc(OCCn2cnc3cnc(C#N)cc3c2=O)c(-c2cccc(C(=O)O)c2)c1` [compound 124], the IC50 is, setting by setting: under setting [2], greater than 1 µM; under setting [3], 9.13 µM. In the case of `CCN(c1ncc2nc(C)n(CC#Cc3ccc(Cl)cc3-c3ccnc4c(C(=O)NS(=O)(=O)c5ccncc5)csc34)c(=O)c2c1C#N)C1CCN([C@H]2C[C@H](OC(F)F)C2)CC1` [compound 1769], the IC50 under setting [1] is 0.0164 µM. Consider `Cc1cc2nccc(-c3cc(Cl)ccc3OCCn3c(C)nc4cc(C(F)(F)F)c(N5CCN(C)CC5)c(C#N)c4c3=O)c2s1` [compound 1248], for which the IC50 is 0.05 to 1 µM under setting [2] and 0.0607 µM under setting [1].

With `Cc1cc(-c2cc(Cl)ccc2OCCn2c(C)nc3cnc(C4CCCC(F)(F)C4)c(C#N)c3c2=O)c2scc(C(=O)O)c2n1` (stereo not shown) [compound 931], the IC50 reads like this: under setting [2], less than 0.05 µM; under setting [3], 0.0137 µM. With `Cn1cc2c(C(=O)O)cc(-c3cc(Cl)ccc3OCCn3cnc4cnc(C#N)cc4c3=O)cc2n1` [compound 102], the IC50 under setting [2] was greater than 1 µM and the IC50 under setting [3] was 4.82 µM.

On to `Cc1nc2cc(F)c(S(=O)(=O)N(C)C)c(C#N)c2c(=O)n1CCOc1ccc(Cl)cc1-c1ccnc2c(C(=O)O)csc12` [compound 281], for which the IC50 reads like this: under setting [2], less than 0.05 µM; under setting [3], 0.0375 µM. For the compound `Cc1nc2cc(C(F)(F)F)cc(C#N)c2c(=O)n1CCOc1ccc(Cl)cc1-c1ccnc(C(=O)O)c1` [compound 60], the IC50 under setting [2] is less than 0.05 µM.

For the compound `Cc1nc2cc(C(F)(F)F)c(C3CCNCC3)cc2c(=O)n1CCOc1ccc(Cl)cc1-c1ccnc2c(C(=O)O)csc12` [compound 880], the IC50 runs as follows: under setting [2], 0.05 to 1 µM; under setting [3], 0.0679 µM. The matching figures for `Cc1cc2c(=O)n(CCOc3ccc(Cl)cc3-c3cccc(C(=O)O)c3)cnc2cn1` [compound 138]: 0.05 to 1 µM and 0.279 µM. With `Cc1cc(-c2cc(Cl)ccc2OCCn2c(C)nc3cc(F)c(CN4CCOCC4)c(C#N)c3c2=O)c2scc(C(=O)O)c2n1` [compound 367], the IC50 by setting is: under setting [2], less than 0.05 µM; under setting [3], 0.00287 µM. On to `Cc1nc2cnc(N(C)C3CCN(CC(F)(F)F)CC3)c(C#N)c2c(=O)n1CC#Cc1ccc(Cl)cc1-c1ccnc2c(C(=O)NS(=O)(=O)c3ccc(F)cc3F)csc12` [compound 1550], for which, under setting [1], the IC50 is 0.0229 µM. With `Cc1nc2cnc(/C=C/CN(C)CCF)c(C#N)c2c(=O)n1CC#Cc1ccc(Cl)cc1-c1ccnc2c(C(=O)O)csc12` [compound 1402], the IC50 under setting [1] is 0.00658 µM.

For `Cc1cc(-c2cc(Cl)ccc2OCCn2c(C)nc3cnc(NCC(F)(F)F)c(C#N)c3c2=O)c2scc(C(=O)O)c2n1` [compound 972], the IC50 is, setting by setting: under setting [2], less than 0.05 µM; under setting [3], 0.00977 µM. The corresponding values for `Cc1nc2cnc(C#N)cc2c(=O)n1CCOc1ccc(Cl)cc1-c1ccnc(C(=O)O)c1` [compound 134] are 0.05 to 1 µM and 0.116 µM.

For the compound `Cc1nc2cnc(Nc3ccccc3)cc2c(=O)n1CCOc1ccc(Cl)cc1-c1cccc(C(=O)O)c1` [compound 2004], the IC50 under setting [1] is 0.639 µM. On to `Cc1nc2cnc(N3CCC(O)C3)c(C#N)c2c(=O)n1CCOc1ccc(Cl)cc1-c1ccnc2ccsc12` (stereo not shown) [compound 1258], for which, under setting [1], the IC50 is 0.0615 µM.

For `Cc1nc2cc(C(F)(F)F)cc(C#N)c2c(=O)n1CCOc1cc(F)c(C#N)cc1-c1ccnc2c(C(=O)O)csc12` [compound 289], the IC50 is, setting by setting: under setting [2], less than 0.05 µM; under setting [3], 0.0191 µM. The matching figures for `Cc1nc2c(C(F)F)ccc(C#N)c2c(=O)n1CCOc1ccc(Cl)cc1-c1ccnc2c(C(=O)O)csc12` [compound 360]: less than 0.05 µM and 0.0426 µM. The matching figures for `Cc1c(C(=O)O)ccnc1-c1cc(Cl)ccc1OCCn1cnc2cnc(C#N)cc2c1=O` [compound 115]: greater than 1 µM and greater than 3 µM. The matching figures for `Cc1nc2cc(C(F)(F)F)cc(C#N)c2c(=O)n1CCOc1ccc(Cl)cc1-c1ccnc(-c2nnn[nH]2)c1` [compound 662]: 0.05 to 1 µM and 0.144 µM. For the compound `Cc1nc2c(F)c(C(F)(F)F)cc(C#N)c2c(=O)n1CCOc1ccc(Cl)cc1-c1ccnc2c(C(=O)O)csc12` [compound 294], the IC50 is less than 0.05 µM under setting [2] and 0.0229 µM under setting [3]. With `N#Cc1cc2c(=O)n(CCOc3ccc(Cl)cc3-c3cc(C(=O)O)ccc3C3CC3)cnc2cn1` [compound 92], the IC50 is, setting by setting: under setting [2], greater than 1 µM; under setting [3], greater than 3 µM. Turning to `O=C(O)c1cccc(-c2cc(Cl)ccc2OCCn2cnc3cnc(Sc4ccccc4)cc3c2=O)c1` [compound 26], the IC50 runs as follows: under setting [2], 0.05 to 1 µM; under setting [3], 0.919 µM. In the case of `N#Cc1cc(C#N)c2c(=O)n(CCOc3ccc(Cl)cc3-c3cccc(C(=O)O)c3)cnc2c1` [compound 1989], the IC50 under setting [1] is 0.089 µM. On to `Cc1cc(-c2cc(Cl)ccc2OCCn2c(C)nc3cc(Cl)c(-c4cccnc4C)c(C#N)c3c2=O)c2scc(C(=O)O)c2n1` [compound 395], for which the IC50 under setting [2] was less than 0.05 µM and the IC50 under setting [3] is 0.00968 µM. As to `Cc1cc(F)c(-c2c(C(F)(F)F)cc3nc(C)n(CCOc4ccc(Cl)cc4-c4cc(C)nc5c(C(=O)O)csc45)c(=O)c3c2C#N)cn1` [compound 1388], under setting [1], the IC50 is 0.0362 µM.

Regarding `Cc1cc(-c2cc(Cl)ccc2OCCn2c(C)nc3cnc(C4CC4)c(C#N)c3c2=O)c2scc(C(=O)O)c2n1` [compound 418], the IC50 runs as follows: under setting [2], less than 0.05 µM; under setting [3], 0.00907 µM. For `Cc1nc2cnc(N(C)C3CCN(C4(CF)CC4)CC3)c(C#N)c2c(=O)n1CCOc1ccc(Cl)cc1-c1ccnc2c(C(=O)O)csc12` [compound 1428], the IC50 under setting [1] is 0.0122 µM. As for `Cc1cc(-c2cc(Cl)ccc2OCCn2c(C)nc3cc(Cl)c(N4CC(C)(C)C4)c(C#N)c3c2=O)c2scc(C(=O)O)c2n1` [compound 691], the IC50 under setting [2] is less than 0.05 µM and the IC50 under setting [3] was 0.00717 µM. The matching figures for `Cc1nc2cc(S(=O)(=O)N(C)C)c(F)c(C#N)c2c(=O)n1CCOc1ccc(Cl)cc1-c1ccnc2c(C(=O)O)csc12` [compound 280]: less than 0.05 µM and 0.0412 µM. The matching figures for `Cc1nc2c(C(F)F)nc(C#N)cc2c(=O)n1CCOc1ccc(Cl)cc1-c1cccc(C(=O)O)c1` [compound 33]: 0.05 to 1 µM and 0.203 µM.

Turning to `Cc1nc2c(F)cc(C(F)F)c(C#N)c2c(=O)n1CCOc1ccc(Cl)cc1-c1ccnc2c(-c3nnn[nH]3)csc12` [compound 302], the IC50 is, setting by setting: under setting [2], 0.05 to 1 µM; under setting [3], 0.0776 µM. Regarding `Cc1cc(-c2cc(Cl)ccc2OCCn2c(C)nc3cnc(N(C)N(C)C)c(C#N)c3c2=O)c2scc(C(=O)O)c2n1` [compound 978], the IC50 under setting [2] was less than 0.05 µM and the IC50 under setting [3] is 0.0207 µM. The matching figures for `Cc1nc2cc(F)c(F)c(C#N)c2c(=O)n1CCOc1ccc(Cl)cc1-c1ccnc2c(-c3nnn[nH]3)csc12` [compound 306]: 0.05 to 1 µM and 0.0912 µM.

`Cc1cc(-c2cc(Cl)ccc2OCCn2c(C)nc3cc(-c4cccnc4)cc(C#N)c3c2=O)c2scc(C(=O)O)c2n1` [compound 654]: the IC50 under setting [2] is less than 0.05 µM and the IC50 under setting [3] is 0.00312 µM.

As to `N#Cc1cc2c(=O)n(CCOc3ccc(Cl)cc3-c3cnc(C(=O)O)s3)cnc2cn1` [compound 54], the IC50 under setting [2] was greater than 1 µM and the IC50 under setting [3] is 2.28 µM. For `Cc1nc2cnc(N3CCN([C@H]4C[C@@H](OC(F)F)C4)CC3)c(C#N)c2c(=O)n1CC#Cc1ccc(Cl)cc1-c1ccnc2c(C(=O)O)csc12` [compound 1511], the IC50 under setting [1] was 0.0232 µM.

Take `CCN(c1ncc2nc(C)n(CC#Cc3ccc(Cl)cc3-c3ccnc4c(C(=O)NS(=O)(=O)CC)csc34)c(=O)c2c1C#N)C1CCN(C2COC2)CC1` [compound 1733]: under setting [1], the IC50 is 0.00811 µM. On the same count and under the same terms, with `Cc1nc2cnc(N(C)C3CCN(C4(C#N)CC4)CC3)c(C#N)c2c(=O)n1CC#Cc1ccc(Cl)cc1-c1ccnc2c(C(=O)O)csc12` [compound 1494] the figure was 0.0247 µM.

Turning to `Cc1cc(-c2cc(Cl)ccc2OCCn2c(C)nc3cc(CN(C)C)c(C)c(C#N)c3c2=O)c2scc(C(=O)O)c2n1` [compound 650], the IC50 under setting [2] is less than 0.05 µM and the IC50 under setting [3] is 0.0283 µM. `Cc1nc2cnc(N3CCN(CCOC(F)F)CC3)c(C#N)c2c(=O)n1CC#Cc1ccc(Cl)cc1-c1ccnc2c(C(=O)O)csc12` [compound 1464]: the IC50 under setting [1] is 0.0134 µM. Regarding `CNc1ncc2nc(C)n(CCOc3ccc(Cl)cc3-c3cc(C)nc4c(C(=O)O)csc34)c(=O)c2c1C#N` [compound 985], the IC50 under setting [2] was less than 0.05 µM and the IC50 under setting [3] is 0.00669 µM.

For the compound `N#Cc1c(C(F)F)ccc2ncn(CCOc3ccc(Cl)cc3-c3ccnc(C(=O)O)c3)c(=O)c12` [compound 161], the IC50 under setting [2] is 0.05 to 1 µM. Consider `Cc1nc2cc(C(F)(F)F)c(N3CCN(C)C(CO)C3)c(C#N)c2c(=O)n1CCOc1ccc(Cl)cc1-c1ccnc2c(C(=O)O)csc12` (stereo not shown) [compound 1261], for which, under setting [1], the IC50 was 0.0336 µM.

These data come from patent US11286268B1, “EIF4E-inhibiting compounds and methods” (EFFECTOR THERAPEUTICS, INC., priority 2019, dated 2022).
